Where “and” joins values, the source holds several entries; their conditions need not be identical. Equal values may be shown once.
How the values were obtained:
G6pc promoter (G6p-Luc) = assay: G6p-Luc reporter in primary hepatocytes; format: cell-based, mouse; details: APC 10 μM, 8-h
AMPK = assay: Phospho-AMPK immunoblot in primary hepatocytes; format: cell-based, mouse; details: for relative p-AMPK protein, mean: N=3 (0 μM = 1); for relative p-AMPK protein: Supp. fig.3e, individual replicates
Method: Immunoblotting and immunoprecipitation assays were performed as previously described, with antibodies recognizing CREB, Ser133-P-CREB, AMPK, P-AMPK, AKT, P-AKT (Cell Signaling), PGC-1α (Merck), CRTC2 (Calbiochem), PCK1 (Santa Cruz), SREBP1 (Santa Cruz), SREBP2 (BD), HA (Convance), LXRα (Santa Cruz), FLAG (Sigma), GST (Covance), HIS (Abmart), GAPDH (AOGMA), α-TUBULIN (Abmart), β-ACTIN (Abmart), and other antibodies (Supplementary Table 3). For immunostaining assays, primary cultured hepatocytes seeded on coverslips were fixed with 4% paraformaldehyde for 20 min, permeabilized with 0.3% Triton X-100 in PBS, and then blocked by 5% normal goat serum and 0.3% Triton X-100 in PBS, followed by incubation with anti-CREB (1:1000), anti-P-CREB (1:1000), or anti-HA (1:3000) antibodies for 1 h at 4 °C. Slides were then washed, and after washing, slides were incubated with fluorochrome-conjugated secondary antibodies (Invitrogen). Slides were then washed and mounted with Vectashield mounting media containing 4, 6-diamidino-2-phenylindole (DAPI).
1 Supplementary Figure 3. APC inhibits gluconeogenesis independent of CREB-phosphorylation,
2 cell toxin or AMPK activation. […]
20 e) Phosphate-AMPK level in primary hepatocytes incubated with APC or metformin (MET) at
21 indicated concentrations (0–200 μM) for 30 minutes (top). Relative P-AMPK normalized by AMPK is […]

[1] = Body weight and body composition (living NMR) of mice; format: in vivo, mouse; design: AUC of body weight curve, group mean / fat mass of DIO, group mean / Total Area (AUC of body weight curve): unit not given here; details: for Total Area (AUC of body weight curve) / Body weight, column mean (main column effect) / AUC of body weight curve, group mean / Body weight (BW) / Fat/lean ratio / fat mass of DIO / Fat/lean ratio, group mean / fat mass of DIO, group mean: DIO mice; for Body weight, column mean (main column effect): mean over 5 weeks, N=45, in g (unit assumed); for AUC of body weight curve, group mean: n=9; for Fat/lean ratio, group mean / fat mass of DIO, group mean: n=8
Method: All animal experiments were performed according to procedures approved by the Shanghai Institutes for Biological Sciences (SIBS) Animal Care and Use Committee. The db/db mice (stock NO. 000642 C57BL/6J, JACKSON) were purchased from the Jackson laboratory. The 8–10-week-old wild-type C57BL/6 and ICR/JCL mice were purchased from the Shanghai Laboratory Animal Center. Mice were housed in the animal facility at SIBS, in which mice were maintained on a 12-h light/12-h dark cycle for at least 2 weeks before the study and had free access to water and a regular diet (12% fat). For high-fat-induced obesity mice (DIO), high-fat diet (60% fat, Research Diets) was fed to wild-type mice for at least 13–15 weeks and glucose-tolerance tests were performed to confirm the development of diabetes in these mice. After being euthanized, samples were collected. Unless specified, male mice were used for these experiments.
Under the condition of non-anesthesia and non-invasion, the composition of fat and lean in live mice was analyzed by nuclear magnetic resonance (NMR, The Minispec, Bruker) according to the operational manual.

[2] = 200 μM (first of two lines printed 200)
[3] = 200 μM (second of two lines printed 200)
[4] = DIO and db/db mice, i.p. 10 or 20 mg/kg
[5] = APC 10 mg/kg, individual animals
[6] = APC 20 mg/kg, individual animals

Compound: CC(C)=CCc1cc(C=CC(=O)O)cc(CC=C(C)C)c1O [APC, 3,5-diprenyl-4-hydroxycinnamic acid]
- CRTC2-S171A induced G6p-luciferase activity (G6pc promoter (G6p-Luc)): reduced
- relative p-AMPK protein, mean (AMPK; 5 μM): 0.9451
- relative p-AMPK protein, mean (AMPK; 10 μM): 0.8939
- relative p-AMPK protein, mean (AMPK; 100 μM): 0.906
- relative p-AMPK protein, mean (AMPK; [2]): 0.9865
- relative p-AMPK protein, mean (AMPK; [3]): 1.094
- relative p-AMPK protein (AMPK; 5 μM): 1.019 and 0.9566 and 0.8598
- relative p-AMPK protein (AMPK; 10 μM): 0.8723 and 0.8495 and 0.96
- relative p-AMPK protein (AMPK; 100 μM): 0.9495 and 0.9349 and 0.8336
- relative p-AMPK protein (AMPK; [2]): 0.9904 and 0.9893 and 0.9798
- relative p-AMPK protein (AMPK; [3]): 1.017 and 1.161 and 1.105
- relative p-AMPK protein, column mean (AMPK; mean over all concentrations, 0 μM included): 0.971
- phosphorylation of AMPK (AMPK; primary hepatocytes, up to 200 μM): did not induce phosphorylation of AMPK
- body weights [1, 4]: reduced
- fat mass and fat to lean ratio [1, 4]: significant decrease
- Total Area (AUC of body weight curve) ([1]; APC 10 mg/kg ip, individual animals): 120.1 and 149.9 and 145.1 and 147.4 and 144.1 and 156.2 and 141.9 and 151.1 and 155.2
- Body weight, column mean (main column effect) ([1]; APC 10 mg/kg ip): 37.24
- AUC of body weight curve, group mean ([1]; APC 10 mg/kg ip): 145.7
- Body weight (BW) ([1]; APC 10 mg/kg ip, week 0, individual animals): 35.8 g and 42.4 g and 44.2 g and 42.6 g and 43.4 g and 41.4 g and 42 g and 41.7 g and 47 g
- Body weight (BW) ([1]; APC 10 mg/kg ip, week 1, individual animals): 29.5 g and 36.7 g (2×) and 37.7 g and 36.4 g and 42.9 g and 35.2 g and 34.9 g and 39.6 g
- Body weight (BW) ([1]; APC 10 mg/kg ip, week 2, individual animals): 29.3 g and 36.8 g and 38.4 g and 36 g (2×) and 36.6 g and 42.8 g and 35.7 g and 39.9 g
- Body weight (BW) ([1]; APC 10 mg/kg ip, week 3, individual animals): 29.3 g and 37.3 g and 38.5 g and 36.1 g and 35 g and 42.4 g and 35.3 g and 35.8 g and 39.5 g
- Body weight (BW) ([1]; APC 10 mg/kg ip, week 4, individual animals): 29.7 g and 37.3 g and 38.4 g and 36.7 g and 33.7 g and 40.9 g and 33.3 g and 42 g and 37.2 g
- Body weight (BW) ([1]; APC 10 mg/kg ip, week 5, individual animals): 34.01 g and 40.28 g and 41.99 g and 40.47 g and 41.23 g and 39.33 g and 39.9 g and 39.615 g and 44.65 g
- Fat/lean ratio [1, 5]: 0.4757 and 0.5256 and 0.2029 and 0.4176 and 0.1933 and 0.2387 and 0.2853 and 0.2798
- fat mass of DIO [1, 5]: 10.86 g and 11.25 g and 7.23 g and 10.98 g and 11.28 g and 7.03 g and 6.72 g and 7.86 g
- Fat/lean ratio, group mean ([1]; APC 10 mg/kg): 0.3274
- fat mass of DIO, group mean ([1]; APC 10 mg/kg): 9.151
- Total Area (AUC of body weight curve) ([1]; APC 20 mg/kg ip, individual animals): 123.1 and 131.4 and 141.8 and 135.4 and 152.5 and 146.9 and 147.6 and 154 and 138.7
- Body weight, column mean (main column effect) ([1]; APC 20 mg/kg ip): 35.74
- AUC of body weight curve, group mean ([1]; APC 20 mg/kg ip): 141.3
- Body weight (BW) ([1]; APC 20 mg/kg ip, week 0, individual animals): 36.3 g and 41.5 g and 43.7 g and 41.3 g (2×) and 48.2 g and 44.7 g and 46.6 g and 47.1 g
- Body weight (BW) ([1]; APC 20 mg/kg ip, week 1, individual animals): 29.9 g and 34.9 g and 36.7 g and 33 g and 40.6 g and 37.6 g and 35.9 g and 38.6 g and 35.1 g
- Body weight (BW) ([1]; APC 20 mg/kg ip, week 2, individual animals): 30.2 g and 33.7 g (2×) and 35.8 g and 41.6 g and 38.4 g and 36.8 g and 39.6 g and 34.9 g
- Body weight (BW) ([1]; APC 20 mg/kg ip, week 3, individual animals): 30 g and 31.4 g and 35.1 g and 33.7 g and 41.2 g and 35.4 g and 36.3 g and 37.9 g and 34.4 g
- Body weight (BW) ([1]; APC 20 mg/kg ip, week 4, individual animals): 30.5 g and 31.2 g and 34 g (2×) and 38.9 g and 31.3 g and 36.7 g and 37.2 g and 34.3 g
- Body weight (BW) ([1]; APC 20 mg/kg ip, week 5, individual animals): 30.855 g and 35.275 g and 37.145 g and 35.105 g (2×) and 40.97 g and 37.995 g and 39.61 g and 40.035 g
- Fat/lean ratio [1, 6]: 0.1945 and 0.1916 and 0.1806 and 0.5498 and 0.1998 and 0.4126 and 0.3005 and 0.2177
- fat mass of DIO [1, 6]: 8.13 g and 8.08 g and 9.26 g and 10.23 g and 9.91 g and 8.44 g and 10.75 g and 9.93 g
- Fat/lean ratio, group mean ([1]; APC 20 mg/kg): 0.2809
- fat mass of DIO, group mean ([1]; APC 20 mg/kg): 9.341
- fat of db/db mice ([1]; db/db mice, individual animals): 13.23 g and 18.64 g and 16.51 g and 20.35 g and 17.58 g and 17.71 g and 15.53 g
- fat/lean ratio of db/db mice ([1]; db/db mice, individual animals): 1.371 and 1.124 (2×) and 1.477 and 1.196 and 1.113 and 1.231

From PMC8752738, “A propolis-derived small molecule ameliorates metabolic syndrome in obese mice by targeting the CREB/CRTC2 transcriptional complex” (Nature Communications, 2022)
